From publication PMC10913730, “Antimicrobial activity of a natural compound and analogs against multi-drug-resistant Gram-positive pathogens” (Microbiology Spectrum, 2024)
Like-named read-outs stand apart in the source and are kept apart here.

Columns and labels:
[1] = pH and Ka of 10-g/L aqueous solutions (pH meter); assay type: physicochemical; settings: 10-g/L solution in distilled, deionized water
MRSA isolates = assay: MIC/MBC, CLSI broth microdilution, MRSA isolates; assay type: cell-based, Staphylococcus aureus
[2] = tested on: human dermal fibroblast (HDF) cells; assay: alamarBlue cell viability assay, HDF; settings: HDFs, 24-hour incubation, non-linear regression
[3] = tested on: human bronchial epithelial (16HBE) cells; assay: alamarBlue cell viability assay, 16HBE; settings: 24-hour incubation, non-linear regression
[4] = tested on: erythrocytes (sheep blood); assay: Hemolytic activity against sheep erythrocytes
[5] = Aqueous solubility of compounds reconstituted at 10 mg/mL in water; settings: 10 mg/mL in distilled deionized water
[6] = Staphylococcus aureus, MRSA, pH 5.5, MRSA 0606, pH 5.5
[7] = Staphylococcus aureus, MRSA, pH 5.5, MRSA 0608, pH 5.5
[8] = Staphylococcus aureus, MRSA, pH 5.5, MRSA 0634, pH 5.5
[9] = Staphylococcus aureus, MRSA, pH 5.5, MRSA 0641, pH 5.5
[10] = Staphylococcus aureus, MRSA, pH 5.5, MRSA 0646, pH 5.5
[11] = Staphylococcus aureus, MRSA, pH 5.5, TCH 1516, pH 5.5
[12] = Staphylococcus aureus, MRSA, pH 6.5, MRSA 0606, pH 6.5
[13] = Staphylococcus aureus, MRSA, pH 6.5, MRSA 0608, pH 6.5
[14] = Staphylococcus aureus, MRSA, pH 6.5, MRSA 0634, pH 6.5
[15] = Staphylococcus aureus, MRSA, pH 6.5, MRSA 0641, pH 6.5
[16] = Staphylococcus aureus, MRSA, pH 6.5, MRSA 0646, pH 6.5
[17] = Staphylococcus aureus, MRSA, pH 6.5, TCH 1516, pH 6.5
[18] = Staphylococcus aureus, MRSA, pH 7.4, MRSA 0606, pH 7.4
[19] = Staphylococcus aureus, MRSA, pH 7.4, MRSA 0608, pH 7.4
[20] = Staphylococcus aureus, MRSA, pH 7.4, MRSA 0634, pH 7.4
[21] = Staphylococcus aureus, MRSA, pH 7.4, MRSA 0641, pH 7.4
[22] = Staphylococcus aureus, MRSA, pH 7.4, MRSA 0646, pH 7.4
[23] = Staphylococcus aureus, MRSA, pH 7.4, TCH 1516, pH 7.4

[Na+].[Na+].[O-]c1c(Cl)cc(Cl)cc1-c1cc(Cl)cc(Cl)c1[O-] [C59Na]
acid dissociation constant (Ka) [1]: 1.54 × 10^−16
pH of solution ([1]; room temperature): 8.69
MIC90 (MRSA isolates; Staphylococcus aureus, MRSA, 39 evaluated MRSA isolates, CLSI broth microdilution): 4 mg/L
MBC (MRSA isolates; [6]): 0.25 mg/L
MIC (MRSA isolates; [6]): 0.25 mg/L
MBC (MRSA isolates; [7]): 0.25 mg/L
MIC (MRSA isolates; [7]): 0.25 mg/L
MBC (MRSA isolates; [8]): 0.25 mg/L
MIC (MRSA isolates; [8]): 0.25 mg/L
MBC (MRSA isolates; [9]): 0.25 mg/L
MIC (MRSA isolates; [9]): 0.25 mg/L
MBC (MRSA isolates; [10]): 0.25 mg/L
MIC (MRSA isolates; [10]): 0.25 mg/L
MBC (MRSA isolates; [11]): 0.25 mg/L
MIC (MRSA isolates; [11]): 0.25 mg/L
MBC (MRSA isolates; Staphylococcus aureus, MRSA, pH 5.5, read-out: Average MBC, average of six MRSA isolates, pH 5.5): 0.25 mg/L
MIC (MRSA isolates; Staphylococcus aureus, MRSA, pH 5.5, read-out: Average MIC, average of six MRSA isolates, pH 5.5): 0.25 mg/L
MBC (MRSA isolates; [12]): 1 mg/L
MIC (MRSA isolates; [12]): 0.5 mg/L
MBC (MRSA isolates; [13]): 1 mg/L
MIC (MRSA isolates; [13]): 1 mg/L
MBC (MRSA isolates; [14]): 1 mg/L
MIC (MRSA isolates; [14]): 1 mg/L
MBC (MRSA isolates; [15]): 1 mg/L
MIC (MRSA isolates; [15]): 0.5 mg/L
MBC (MRSA isolates; [16]): 1 mg/L
MIC (MRSA isolates; [16]): 0.5 mg/L
MBC (MRSA isolates; [17]): 2 mg/L
MIC (MRSA isolates; [17]): 1 mg/L
MBC (MRSA isolates; Staphylococcus aureus, MRSA, pH 6.5, read-out: Average MBC, average of six MRSA isolates, pH 6.5): 1.2 mg/L
MIC (MRSA isolates; Staphylococcus aureus, MRSA, pH 6.5, read-out: Average MIC, average of six MRSA isolates, pH 6.5): 0.75 mg/L
MBC (MRSA isolates; [18]): 2 mg/L
MIC (MRSA isolates; [18]): 2 mg/L
MBC (MRSA isolates; [19]): 4 mg/L
MIC (MRSA isolates; [19]): 2 mg/L
MBC (MRSA isolates; [20]): 2 mg/L
MIC (MRSA isolates; [20]): 2 mg/L
MBC (MRSA isolates; [21]): 4 mg/L
MIC (MRSA isolates; [21]): 2 mg/L
MBC (MRSA isolates; [22]): 4 mg/L
MIC (MRSA isolates; [22]): 1 mg/L
MBC (MRSA isolates; [23]): 2 mg/L
MIC (MRSA isolates; [23]): 2 mg/L
MBC (MRSA isolates; Staphylococcus aureus, MRSA, pH 7.4, read-out: Average MBC, average of six MRSA isolates, pH 7.4): 3 mg/L
MIC (MRSA isolates; Staphylococcus aureus, MRSA, pH 7.4, read-out: Average MIC, average of six MRSA isolates, pH 7.4): 1.8 mg/L
MBC (MRSA isolates; Staphylococcus aureus, MRSA, read-out: MBC90, 39 evaluated MRSA isolates, CLSI broth microdilution): 12 mg/L
change of MIC and MBC with the reduction in pH (MRSA isolates; six MRSA isolates, pH lowered to 5.5): decreased
LD50 [2]: 57.5 µg/mL
LD50 [3]: 30.0 µg/mL
concentrations at which erythrocytes were not lysed ([4]; 1% sheep blood, 1-hour incubation): up to 24 µg/mL
LD50 relative to MIC90 ([4]; higher than MIC90, stated in the hemolysis discussion, cell type not named): 10 fold
aqueous solubility [5]: moderate aqueous solubility
